Measurements: patent publication US4623662A, “Antiatherosclerotic ureas and thioureas” (American Cyanamid Company, priority 1985, dated 1986)
Read-outs that look alike come from different tables or passages of the source. Values belong to the compound of their own block, whether it stands above or below them.

Experiments:
[1] = target: T1, fatty acyl CoA: cholesterol acyl transferase (ACAT) (Rattus norvegicus, UniProt O70536); experiment: Inhibition of fatty acyl CoA:cholesterol acyl transferase (ACAT), rat adrenal enzyme; assay type: biochemical
T1 construct: The supernatant, containing the microsomal fraction, served as the source of the cholesterol-esterifying enzyme; from tissue; host or cells: rat adrenals, supernatant of 1,000 x g centrifugation containing the microsomal fraction
T1 sequence (O70536 1-545): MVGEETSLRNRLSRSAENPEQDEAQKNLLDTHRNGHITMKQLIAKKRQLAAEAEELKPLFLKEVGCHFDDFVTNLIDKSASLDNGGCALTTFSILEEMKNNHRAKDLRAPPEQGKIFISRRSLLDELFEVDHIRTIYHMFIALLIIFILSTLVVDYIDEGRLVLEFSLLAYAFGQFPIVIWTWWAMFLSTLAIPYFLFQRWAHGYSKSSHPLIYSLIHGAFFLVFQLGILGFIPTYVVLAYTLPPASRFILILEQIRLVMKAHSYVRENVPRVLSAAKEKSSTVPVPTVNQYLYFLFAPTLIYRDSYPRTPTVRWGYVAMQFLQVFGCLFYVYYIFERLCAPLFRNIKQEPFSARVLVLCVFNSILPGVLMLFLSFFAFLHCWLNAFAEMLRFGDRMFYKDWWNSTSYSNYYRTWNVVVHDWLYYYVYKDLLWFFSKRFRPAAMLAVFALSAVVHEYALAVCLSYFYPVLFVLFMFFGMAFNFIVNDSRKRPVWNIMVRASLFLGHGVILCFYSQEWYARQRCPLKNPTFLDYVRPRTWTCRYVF
Experimental: The compounds of the present invention were assayed for two types of biological activity related to their potential use as antiatherosclerotic agents. Compounds were tested in vitro for the ability to inhibit the enzyme fatty acyl CoA: cholesterol acyl transferase (ACAT) and in vivo for serum hypolipidemic activity as meausred by the ability to inhibit lipid absorption in rats.
The compounds were tested for their ability to inhibit ACAT according to the following procedure: rat adrenals were homogenized in 0.2M monobasic potassium phosphate buffer, pH 7.4, and centrifuged at 1,000 times gravity for 15 minutes at 5° C. The supernatant, containing the microsomal fraction, served as the source of the cholesterol-esterifying enzyme, fatty acyl CoA:cholesterol acyl transferase (ACAT). A mixture comprising 50 parts of adrenal supernatant, 10 parts of bovine serum albumin (50 mg/ml), 3 parts of test compound (final concentration 5.2 μg/ml), and 500 parts of buffer was preincubated at 37° C. for 10 minutes. After treatment with 20 parts of oleoyl CoA (^14 C-0.4 μCi), the mixture was incubated at 37° C. for 10 minutes. A control mixture, omitting the test compound, was prepared and treated in the same manner. The lipids from the incubation mixture was extracted into an organic solvent and separated by thin-layer chromatography. The cholesteryl ester fraction was counted in a scintillation counter. This procedure is a modification of that described by Hashimoto, et al., Life Scie., 12 (Part II), 1-12 (1973).
Compounds which produced statistically significant inhibition of the ACAT enzyme are considered to be active.
In addition to the above described test and the results given in terms of percent inhibition, various compounds of this invention were tested by the same procedure at several concentrations. The results of this test are given in Table II in terms of IC50 (μM), that concentration which produced 50% inhibition of the ACAT enzyme.

cholesterol absorption = experiment: Inhibition of cholesterol absorption in rats fed 1% cholesterol:0.5% cholic acid diet; assay type: in vivo, male Sprague-Dawley rats; conditions: po, 336 h, rat, 2 weeks; for response vs control in vivo at 0.01 %: dose .01% of the diet; for response vs control in vivo at 0.001 %: dose .001% of the diet; for response vs control in vivo at 0.03 %: dose .03% of the diet; for response vs control in vivo at 0.003 %: dose .003% of the diet
Experimental: Inhibition of cholesterol absorption was determined by feeding male Sprague-Dawley rats, weighing 150-170 g, a 1% cholesterol:0.5% cholic acid diet for 2 weeks. The diet also contained compounds being tested at a dose of 0.001, 0.003, 0.01, or 0.03% of the diet. Control rats were fed the same diet without any compound. At the end of the test, the rats were sacrificed by decapitation. Blood was collected, centrifuged at […] for 10 minutes at 4° C.; and the serum was then analyzed for cholesterol and triglycerides enzymatically by the method of Trinder, P., Analyst, 77, 321 (1952) on a Centrifichem 400 analyzer. Livers were removed, a 0.4 g sample was taken from the center of the large lobe, and the sample was subjected to saponification using 25% saturated potassium hydroxide in ethanol. The resulting neutral sterols were extracted with petroleum ether and the extract analyzed for cholesterol. The effectiveness of the compound in inhibiting cholesterol absorption was measured by the lowering of either serum cholesterol or liver cholesterol relative the values for control rats.
Compounds which produced statistically significant inhibition of cholesterol absorption are considered to be active. Liver sterol (LS) and serum sterol (SS) values are expressed as a percentage of control values.

[2] = rat adrenal ACAT, final concentration 5.2 μg/ml, read-out: % Inhibition
[3] = read-out: LS (liver sterol), percentage of control values
[4] = read-out: SS (serum sterol), percentage of control values

inhibition at 5.2 µg/mL [1, 2]: 96.1%
SMILES: CCCCN(CCc1ccc(F)cc1)C(=O)Nc1ccc(C)cc1C [1-(n-Butyl)-1-[2-(4-fluorophenyl)ethyl]-3-(2,4-dimethylphenyl)urea]

SMILES: CC(C)(C)CCN(Cc1ccccc1)C(=O)Nc1c(F)cc(F)cc1F [1-Benzyl-1-[3,3-dimethylbutyl]-3-[2,4,6-trifluorophenyl]urea]
inhibition at 5.2 µg/mL [1]: 90%

SMILES: CCCCCCCN(Cc1ccc(CCCC)cc1)C(=O)Nc1c(F)cc(F)cc1F [1-[(4-butylphenyl)methyl]-1-(n-heptyl)-3-[2,4,6-trifluorophenyl]urea]
inhibition at 5.2 µg/mL [1]: 90%

inhibition at 5.2 µg/mL [1, 2]: 53.3%
SMILES: COc1ccc(CCN(Cc2ccc(C)c(Cl)c2)C(=O)Nc2ccc(C)cc2C)cc1OC [1-[2-(3,4-Dimethoxyphenyl)ethyl]-1-(3-chloro-4-methylbenzyl)-3-(2,4-dimethylphenyl)urea]

inhibition at 5.2 µg/mL [1, 2]: 92.8%
SMILES: Cc1ccc(NC(=O)N(CCc2ccccc2Cl)Cc2ccc(C)c(C)c2)c(C)c1 [1-[2-(2-Chlorophenyl)ethyl]-1-(3,4-dimethylbenzyl)-3-(2,4-dimethylphenyl)urea]

SMILES: CCCCc1ccc(CN(CCCCCCOS(C)(=O)=O)C(=O)Nc2ccc(Cl)cc2C)cc1 [1-[(4-Butylphenyl)methyl]-3-(4-chloro-2-methylphenyl)-1-[6-[(methylsulfonyl)oxy]hexyl]urea]
inhibition at 5.2 µg/mL [1]: 90%

inhibition at 5.2 µg/mL [1, 2]: 88.4%
SMILES: CCCCCCCN(CCc1ccccc1)C(=O)Nc1cccc(C(F)(F)F)c1 [1-(n-Heptyl)-1-(2-phenylethyl)-3-(3-trifluoromethylphenyl)urea]

inhibition at 5.2 µg/mL [1, 2]: 93.5%
SMILES: CCCCc1ccc(CN(Cc2ccccc2)C(=O)Nc2ccc(Oc3ccccc3)cc2)cc1 [1-Benzyl-1-(4-n-butylbenzyl)-3-(4-phenoxyphenyl)urea]

inhibition at 5.2 µg/mL [1, 2]: 81%
SMILES: CCCCCOc1ccc(CN(Cc2ccc(CCCCC)cc2)C(=O)Nc2ccc(Cl)cc2C(F)(F)F)cc1 [1-(4-n-Pentylbenzyl)-1-(4-n-pentyloxybenzyl)-3-(2-trifluoromethyl-4-chlorophenyl)urea]

SMILES: CCCCCCCN(Cc1ccc(CC(C)C(C)CC)cc1)C(=O)Nc1c(F)cc(F)cc1F (stereo not shown) [1-(n-Heptyl)-1-[4-(2,3-dimethylpentyl)benzyl]-3-(2,4,6-trifluorophenyl)urea]
response vs control in vivo at 0.01 % (cholesterol absorption; [3]): 31%
response vs control in vivo at 0.01 % (cholesterol absorption; [4]): 33%

SMILES: CCCCCCCN(Cc1ccc(CCCC(C)C)cc1)C(=O)Nc1c(F)cc(F)cc1F [1-(n-Heptyl)-1-[4-(isohexyl)benzyl]-3-(2,4,6-trifluorophenyl)urea]
response vs control in vivo at 0.001 % (cholesterol absorption; [3]): 78%
response vs control in vivo at 0.001 % (cholesterol absorption; [4]): 77%

SMILES: CCCCCCCN(Cc1ccc(OCCC(C)C)cc1)C(=O)Nc1c(C)cc(Cl)cc1C [1-(n-Heptyl)-1-[4-(isopentyloxy)benzyl]-3-(4-chloro-2,6-dimethylphenyl)urea]
response vs control in vivo at 0.001 % (cholesterol absorption; [3]): 23%
response vs control in vivo at 0.001 % (cholesterol absorption; [4]): 25%

SMILES: CCCCCCCN(Cc1ccc(CC(C)C(C)CC)cc1)C(=O)Nc1ccc(F)cc1F (stereo not shown) [1-(n-Heptyl)-1-[4-(2,3-dimethylpentyl)benzyl]-3-(2,4-difluorophenyl)urea]
response vs control in vivo at 0.01 % (cholesterol absorption; [3]): 63%
response vs control in vivo at 0.01 % (cholesterol absorption; [4]): 48%

SMILES: CCCCCCCN(Cc1ccc(CC(C)CC)cc1)C(=O)Nc1c(F)cc(F)cc1F (stereo not shown) [1-(n-Heptyl)-1-[4-(2-methylbutyl)benzyl]-3-(2,4,6-trifluorophenyl)urea]
response vs control in vivo at 0.001 % (cholesterol absorption; [3]): 64%
response vs control in vivo at 0.001 % (cholesterol absorption; [4]): 76%

SMILES: CCCCCCCN(Cc1ccc(CCCC)cc1)C(=O)Nc1ccc(C(F)(F)F)cc1 [1-(n-Heptyl)-1-[4-(n-butyl)benzyl]-3-(4-trifluoromethylphenyl)urea]
response vs control in vivo at 0.03 % (cholesterol absorption; [3]): 88%
response vs control in vivo at 0.03 % (cholesterol absorption; [4]): 79%

SMILES: CCCCCCCN(Cc1ccc(CC(CC)CC)cc1)C(=O)Nc1c(F)cc(F)cc1F [1-(n-Heptyl)-1-[4-(2-ethylbutyl)benzyl)-3-(2,4,6-trifluorophenyl)urea]
response vs control in vivo at 0.001 % (cholesterol absorption; [3]): 75%
response vs control in vivo at 0.001 % (cholesterol absorption; [4]): 120%

SMILES: CCCCCCCN(Cc1ccc(CC(C)CC)cc1)C(=O)Nc1ccc(F)cc1F (stereo not shown) [1-(n-Heptyl)-1-[4-(2-methylbutyl)benzyl]-3-(2,4-difluorophenyl)urea]
response vs control in vivo at 0.01 % (cholesterol absorption; [3]): 42%
response vs control in vivo at 0.01 % (cholesterol absorption; [4]): 36%

SMILES: CCCCCCCN(Cc1ccc(CCC(C)CC)cc1)C(=O)Nc1c(F)cc(F)cc1F (stereo not shown) [1-(n-Heptyl)-1-[4-(3-methylpentyl)benzyl]-3-(2,4,6-trifluorophenyl)urea]
response vs control in vivo at 0.003 % (cholesterol absorption; [3]): 46%
response vs control in vivo at 0.003 % (cholesterol absorption; [4]): 36%

SMILES: CCCCCCCN(Cc1ccc(CC(CC)CCCC)cc1)C(=O)Nc1c(F)cc(F)cc1F (stereo not shown) [1-(n-Heptyl)-1-[4-(2-ethylhexyl)benzyl]-3-(2,4,6-trifluorophenyl)urea]
response vs control in vivo at 0.001 % (cholesterol absorption; [3]): 87%
response vs control in vivo at 0.001 % (cholesterol absorption; [4]): 82%

SMILES: CCCCCCCN(Cc1ccc(CCCC(C)C)cc1)C(=O)Nc1c(C)cc(Cl)cc1C [1-(n-Heptyl)-1-[4-(isohexyl)benzyl]-3-(4-chloro-2,6-dimethylphenyl)urea]
response vs control in vivo at 0.001 % (cholesterol absorption; [3]): 73%
response vs control in vivo at 0.001 % (cholesterol absorption; [4]): 64%

SMILES: CCCCCCCN(Cc1ccc(CC(CC)CC)cc1)C(=O)Nc1ccc(F)cc1F [1-(n-Heptyl)-1-[4-(2-ethylbutyl)benzyl]-3-(2,4-difluorophenyl)urea]
response vs control in vivo at 0.003 % (cholesterol absorption; [3]): 98%
response vs control in vivo at 0.003 % (cholesterol absorption; [4]): 66%

SMILES: CCCCCCCN(Cc1ccc(CC(C)(C)C)cc1)C(=O)Nc1c(C)cc(Cl)cc1C [1-(n-Heptyl)-1-[4-(2,2-dimethylpropyl)phenylmethyl]-3-(4-chloro-2,6-dimethylphenyl)urea]
response vs control in vivo at 0.003 % (cholesterol absorption; [3]): 54%
response vs control in vivo at 0.003 % (cholesterol absorption; [4]): 41%

SMILES: CCCCCCCN(Cc1ccc(CC(CC)CC)cc1)C(=O)Nc1c(C)cc(Cl)cc1C [1-(n-Heptyl)-1-[4-(2-ethylbutyl)benzyl]-3-(4-chloro-2,6-dimethylphenyl)urea]
response vs control in vivo at 0.001 % (cholesterol absorption; [3]): 94%
response vs control in vivo at 0.001 % (cholesterol absorption; [4]): 62%

SMILES: CCCCCCCN(Cc1ccc(CCC(C)CC)cc1)C(=O)Nc1ccc(F)cc1F (stereo not shown) [1-(n-Heptyl)-1-[4-(3-methylpentyl)benzyl]-3-(2,4-difluorophenyl)urea]
response vs control in vivo at 0.001 % (cholesterol absorption; [3]): 89%
response vs control in vivo at 0.001 % (cholesterol absorption; [4]): 72%

SMILES: CC(C)CCCCN(Cc1ccc(CCC(C)C)cc1)C(=O)Nc1c(F)cc(F)cc1F [1-(Isoheptyl)-1-[4-(isopentyl)benzyl]-3-(2,4,6-trifluorophenyl)urea]
response vs control in vivo at 0.001 % (cholesterol absorption; [3]): 45%
response vs control in vivo at 0.001 % (cholesterol absorption; [4]): 33%

SMILES: CCCCCCCN(Cc1ccc(CC2CCC2)cc1)C(=O)Nc1c(F)cc(F)cc1F [1-(n-Heptyl)-1-[4-(cyclobutylmethyl)benzyl]-3-(2,4,6-trifluorophenyl)urea]
response vs control in vivo at 0.001 % (cholesterol absorption; [3]): 66%
response vs control in vivo at 0.001 % (cholesterol absorption; [4]): 62%
